pEC50: −log10 of the molar value.
Legend:
[1] = target: T1, Potassium voltage-gated channel subfamily KQT member 2 (Homo sapiens, UniProt O43526); conditions: filed as agonist, dose 5.0 µM
Description: Agonist activity at Kv7.2 (unknown origin) assessed as shifting of voltage dependent activation to more negative potentials at 5 uM by SyncroPatch assay

[2] = organism: Homo sapiens; conditions: filed as agonist, dose 5.0 µM
Description: Agonist activity at Kv7.2 W236L mutant (unknown origin) assessed as shifting of voltage dependent activation to more negative potentials at 5 uM by SyncroPatch assay

[3] = target: T1, Potassium voltage-gated channel subfamily KQT member 2; experiment: Agonist activity at Kv7.2 (unknown origin) assessed as shifting of voltage dependent activation to more negative potentials by SyncroPatch assay
[4] = target: Potassium voltage-gated channel subfamily KQT member 5 (Homo sapiens, UniProt Q9NR82); experiment: Agonist activity at Kv7.5 (unknown origin) expressed in CHO cells co-expressing GFP; format: cell-based
[5] = target: T2, Potassium voltage-gated channel subfamily KQT member 4 (Homo sapiens, UniProt P56696); experiment: Agonist activity at Kv7.4 (unknown origin) expressed in CHO cells co-expressing GFP; format: cell-based
T2 sequence (P56696 whole entry): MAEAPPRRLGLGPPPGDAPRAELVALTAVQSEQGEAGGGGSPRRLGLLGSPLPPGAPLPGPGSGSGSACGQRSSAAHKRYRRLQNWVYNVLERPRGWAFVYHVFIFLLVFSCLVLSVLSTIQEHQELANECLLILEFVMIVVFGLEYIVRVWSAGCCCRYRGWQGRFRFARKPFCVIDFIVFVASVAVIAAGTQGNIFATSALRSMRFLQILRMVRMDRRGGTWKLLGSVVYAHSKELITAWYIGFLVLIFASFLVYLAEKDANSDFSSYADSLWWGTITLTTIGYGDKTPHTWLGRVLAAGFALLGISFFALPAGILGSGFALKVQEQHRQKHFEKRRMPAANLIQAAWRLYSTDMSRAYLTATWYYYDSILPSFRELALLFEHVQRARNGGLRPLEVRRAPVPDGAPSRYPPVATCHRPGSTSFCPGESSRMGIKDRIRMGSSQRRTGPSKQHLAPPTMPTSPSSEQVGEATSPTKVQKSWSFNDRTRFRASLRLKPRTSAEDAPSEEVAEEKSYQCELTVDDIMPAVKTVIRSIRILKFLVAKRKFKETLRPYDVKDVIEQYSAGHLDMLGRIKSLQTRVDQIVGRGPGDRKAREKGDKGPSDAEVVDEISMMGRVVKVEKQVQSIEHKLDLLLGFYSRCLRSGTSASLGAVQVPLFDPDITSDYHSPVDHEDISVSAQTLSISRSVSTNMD

[6] = target: Voltage-gated potassium channel, KQT; KCNQ2(Kv7.2)/KCNQ3(Kv7.3) (Homo sapiens, UniProt O43525+O43526); experiment: Agonist activity at Kv7.2/3 (unknown origin) expressed in CHO cells co-expressing GFP; format: cell-based
[7] = organism: Homo sapiens; experiment: Selectivity index, ratio of EC50 for agonist activity at Kv7.4 (unknown origin) expressed in CHO cells co-expressing GFP to EC50 for agonist activity at Kv7.2/3 (unknown origin) expressed in CHO cells co-expressing GFP; format: cell-based
[8] = organism: Homo sapiens; experiment: Selectivity index, ratio of EC50 for agonist activity at Kv7.5 (unknown origin) expressed in CHO cells co-expressing GFP to EC50 for agonist activity at Kv7.2/3 (unknown origin) expressed in CHO cells co-expressing GFP; format: cell-based

Chain of Potassium voltage-gated channel subfamily KQT member 5 (Q9NR82 whole entry): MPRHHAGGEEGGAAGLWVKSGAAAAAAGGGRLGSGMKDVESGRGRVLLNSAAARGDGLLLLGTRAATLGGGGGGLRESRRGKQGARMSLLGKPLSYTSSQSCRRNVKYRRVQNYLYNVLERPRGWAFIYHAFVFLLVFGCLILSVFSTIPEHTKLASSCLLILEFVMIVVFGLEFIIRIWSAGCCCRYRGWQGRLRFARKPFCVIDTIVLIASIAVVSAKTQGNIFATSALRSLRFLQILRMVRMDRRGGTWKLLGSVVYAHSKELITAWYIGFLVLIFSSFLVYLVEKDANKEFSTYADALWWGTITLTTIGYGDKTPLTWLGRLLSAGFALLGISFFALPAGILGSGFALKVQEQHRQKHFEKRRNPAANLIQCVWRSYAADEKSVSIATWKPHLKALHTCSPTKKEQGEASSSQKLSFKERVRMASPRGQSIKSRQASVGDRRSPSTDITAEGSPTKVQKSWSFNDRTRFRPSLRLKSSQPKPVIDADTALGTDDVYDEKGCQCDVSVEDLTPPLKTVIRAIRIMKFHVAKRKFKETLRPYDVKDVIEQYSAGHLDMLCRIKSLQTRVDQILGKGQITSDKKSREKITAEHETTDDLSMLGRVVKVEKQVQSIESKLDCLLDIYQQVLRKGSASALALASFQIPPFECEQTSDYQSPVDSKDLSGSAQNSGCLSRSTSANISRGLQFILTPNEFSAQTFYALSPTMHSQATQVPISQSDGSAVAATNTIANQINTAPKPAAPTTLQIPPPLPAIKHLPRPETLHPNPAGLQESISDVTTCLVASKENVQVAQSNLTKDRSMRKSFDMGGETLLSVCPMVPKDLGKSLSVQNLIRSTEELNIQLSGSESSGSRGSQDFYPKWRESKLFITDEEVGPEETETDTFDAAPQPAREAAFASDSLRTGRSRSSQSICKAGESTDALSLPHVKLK
T1 sequence (O43526 whole entry): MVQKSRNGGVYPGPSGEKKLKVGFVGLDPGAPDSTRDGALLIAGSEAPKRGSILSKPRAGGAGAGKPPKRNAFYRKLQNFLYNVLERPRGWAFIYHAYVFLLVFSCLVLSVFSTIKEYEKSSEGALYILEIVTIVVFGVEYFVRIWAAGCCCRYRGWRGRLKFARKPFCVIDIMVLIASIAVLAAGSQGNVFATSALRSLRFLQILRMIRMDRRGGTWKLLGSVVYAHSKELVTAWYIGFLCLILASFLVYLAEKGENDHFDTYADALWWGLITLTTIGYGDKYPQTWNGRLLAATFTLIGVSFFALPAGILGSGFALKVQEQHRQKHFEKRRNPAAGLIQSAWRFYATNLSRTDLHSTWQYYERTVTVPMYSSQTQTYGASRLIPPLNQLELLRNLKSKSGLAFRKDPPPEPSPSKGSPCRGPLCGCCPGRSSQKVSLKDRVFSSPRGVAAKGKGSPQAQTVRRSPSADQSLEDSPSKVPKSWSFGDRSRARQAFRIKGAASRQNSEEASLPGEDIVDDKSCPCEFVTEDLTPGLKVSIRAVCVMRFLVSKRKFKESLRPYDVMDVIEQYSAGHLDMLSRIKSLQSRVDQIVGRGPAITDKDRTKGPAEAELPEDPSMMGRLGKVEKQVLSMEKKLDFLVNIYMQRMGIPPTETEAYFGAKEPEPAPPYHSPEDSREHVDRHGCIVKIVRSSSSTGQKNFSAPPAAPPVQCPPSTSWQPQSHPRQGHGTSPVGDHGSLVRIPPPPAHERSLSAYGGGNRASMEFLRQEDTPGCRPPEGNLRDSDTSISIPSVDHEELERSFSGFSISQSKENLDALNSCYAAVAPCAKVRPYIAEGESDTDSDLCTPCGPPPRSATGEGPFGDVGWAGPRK
Chain of Voltage-gated potassium channel, KQT; KCNQ2(Kv7.2)/KCNQ3(Kv7.3) (O43526 whole entry): as above
Chain of Voltage-gated potassium channel, KQT; KCNQ2(Kv7.2)/KCNQ3(Kv7.3) (O43525 whole entry): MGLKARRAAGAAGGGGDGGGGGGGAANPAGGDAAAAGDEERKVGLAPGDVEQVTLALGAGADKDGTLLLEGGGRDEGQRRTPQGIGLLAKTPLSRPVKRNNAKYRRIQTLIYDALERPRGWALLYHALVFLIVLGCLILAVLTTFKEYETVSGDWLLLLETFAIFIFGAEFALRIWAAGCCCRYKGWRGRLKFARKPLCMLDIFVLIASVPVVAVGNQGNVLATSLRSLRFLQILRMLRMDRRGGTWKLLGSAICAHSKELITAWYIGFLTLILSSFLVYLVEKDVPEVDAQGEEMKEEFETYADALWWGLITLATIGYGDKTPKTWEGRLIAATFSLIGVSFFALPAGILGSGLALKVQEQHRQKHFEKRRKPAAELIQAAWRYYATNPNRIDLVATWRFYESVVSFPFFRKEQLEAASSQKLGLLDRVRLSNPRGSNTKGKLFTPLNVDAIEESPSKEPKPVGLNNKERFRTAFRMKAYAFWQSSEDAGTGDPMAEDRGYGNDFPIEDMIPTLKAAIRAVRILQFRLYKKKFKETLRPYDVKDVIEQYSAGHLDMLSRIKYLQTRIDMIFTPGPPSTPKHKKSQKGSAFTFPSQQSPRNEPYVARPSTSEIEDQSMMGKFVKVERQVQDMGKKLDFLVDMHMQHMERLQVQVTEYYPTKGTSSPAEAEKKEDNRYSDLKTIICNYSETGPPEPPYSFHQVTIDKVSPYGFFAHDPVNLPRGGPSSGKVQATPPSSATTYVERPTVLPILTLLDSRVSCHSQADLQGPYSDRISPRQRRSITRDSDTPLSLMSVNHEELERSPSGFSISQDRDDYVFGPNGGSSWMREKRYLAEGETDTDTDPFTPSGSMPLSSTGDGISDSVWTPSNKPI

SMILES: CC(C)OC(=O)Nc1ccc2[nH]c(-c3ccc(C(F)(F)F)cc3)cc2c1
- V1/2 [1]: -3.2 mV
- V1/2 [2]: -0.31 mV

SMILES: COc1ccc2c(c1)[C@@H](NC(=O)OCc1ccccc1)[C@H](C)[C@@H](c1ccccc1)N2C(=O)NC(C)C
- V1/2 [1]: 6.2 mV
- V1/2 [2]: 4.9 mV

SMILES: CC[C@H]1Nc2ccc(OC)cc2[C@@H](NS(C)(=O)=O)[C@@H]1C
- V1/2 [1]: -3 mV
- V1/2 [2]: 2.8 mV

SMILES: COc1ccc(CNc2cc3ccccc3c(=O)[nH]2)cc1
- V1/2 [1]: -3 mV
- V1/2 [2]: 1.3 mV

SMILES: CCOC(=O)Nc1ccc2[nH]c(-c3ccc(F)cc3)cc2c1
- V1/2 [1]: -0.66 mV
- V1/2 [2]: 2.5 mV

SMILES: CCOC(=O)Nc1ccc(NCc2ccc(F)cc2)cc1N [EZOGABINE]
- V1/2 [1]: -34.3 mV
- pEC50 [3]: 5.38
- V1/2 [2]: 4.2 mV

SMILES: CCOC(=O)Nc1cc(F)c(NCc2ccc(C(F)(F)F)cc2)c(F)c1N
- pEC50 [4]: 5.97
- pEC50 [5]: 7.06

SMILES: CCOC(=O)Nc1ccc2[nH]c(-c3ccc(C(F)(F)F)cc3)cc2c1
- V1/2 [1]: -4.8 mV
- V1/2 [2]: -6 mV

SMILES: CCOC(=O)Nc1ccc(NCc2ccc(C(F)(F)F)nc2)c(F)c1N
- pEC50 [4]: 6.27
- pEC50 [5]: 6.18
- pEC50 [6]: 5.47

SMILES: CCOC(=O)Nc1ccc(NCc2ccc(F)cc2)nc1N
- V1/2 [1]: -23.8 mV
- V1/2 [2]: 1.2 mV

SMILES: Nc1c(NC(=O)OC2CC2)ccc(NCc2ccc(C(F)(F)F)cc2)c1F
- pEC50 [4]: 5.42
- pEC50 [5]: 6.04
- Ratio EC50 [7]: 50
- V1/2 [1]: -44.9 mV
- pEC50 [3]: 5.52
- V1/2 [2]: -9.3 mV
- Ratio EC50 [8]: 50
- pEC50 [6]: 7.74

SMILES: Nc1c(F)c(NCc2ncc(C(F)(F)F)cc2F)c(F)c(F)c1NC(=O)OC1CC1
- pEC50 [4]: 5.42
- pEC50 [5]: 6.49

SMILES: [2H]c1cc(NC(=O)OCC)c(N)c(F)c1NCc1ccc(C(F)(F)F)cc1
- pEC50 [3]: 6.01

SMILES: COc1ccc2c(c1)[C@@H](NC(C)=O)[C@H](C)[C@@H](c1ccccc1)N2C(C)=O
- V1/2 [1]: 2.5 mV
- V1/2 [2]: 0.26 mV

SMILES: O=C(Cc1cc(F)cc(F)c1)Nc1ccc2[nH]c(-c3ccc(C(F)(F)F)cc3)cc2c1
- V1/2 [1]: -1.1 mV
- V1/2 [2]: 2.4 mV

SMILES: O=C(Nc1ccc2[nH]c(-c3ccc(C(F)(F)F)cc3)cc2c1)OC1CC1
- V1/2 [1]: 6.2 mV
- V1/2 [2]: 4.7 mV

SMILES: COc1ccc2c(c1)[C@@H](NC(C)=O)[C@H](C)[C@@H](c1ccccc1)N2C(=O)Nc1ccc(C(F)(F)F)cc1
- V1/2 [1]: 10 mV
- V1/2 [2]: -2.7 mV

SMILES: CCOC(=O)Nc1cc(F)c2c(c1N)S(=O)(=O)CC(c1ccccc1)N2 (stereo unspecified)
- V1/2 [1]: 4.4 mV
- V1/2 [2]: 2.8 mV

SMILES: CCOC(=O)Nc1ccc(NCc2ccc(C(F)(F)F)cc2)c(F)c1N
- V1/2 [1]: -48.1 mV
- V1/2 ([1]; tested as the 2H-labelled form): -45.2 mV
- V1/2 [2]: 1.9 mV
- V1/2 ([2]; tested as the 2H-labelled form): -4.4 mV

SMILES: O=C(Cc1ccc(OC(F)(F)F)cc1)Nc1ccc2[nH]c(-c3ccc(C(F)(F)F)cc3)cc2c1
- V1/2 [1]: -8.9 mV
- V1/2 [2]: 3.9 mV

SMILES: CC(C)(C)CC(=O)Nc1ccc2[nH]c(-c3ccc(C(F)(F)F)cc3)cc2c1
- V1/2 [1]: -4.1 mV
- V1/2 [2]: 3.2 mV
